Laboratory results as given in ChEMBL document CHEMBL3797052 (Eur J Med Chem, 2016).

Legend:
Assay type in all cases: functional
[1] = Cytotoxicity against human HCT116 cells assessed as growth inhibition at 100 uM after 2 days by MTT assay; conditions: HCT-116, 48 h, read-out: GI
[2] = Cytotoxicity against human HCT116 cells assessed as growth inhibition at 10 uM after 2 days by MTT assay; conditions: HCT-116, 48 h, read-out: GI
[3] = Cytotoxicity against human SKBR3 cells assessed as growth inhibition at 100 uM after 2 days by MTT assay; conditions: SK-BR-3, 48 h, read-out: GI
[4] = Cytotoxicity against human SKBR3 cells assessed as growth inhibition at 10 uM after 2 days by MTT assay; conditions: SK-BR-3, 48 h, read-out: GI
CCRF-CEM = experiment: Antiproliferative activity against human CCRF-CEM cells assessed as cell growth at 10^-5 M after 48 hrs by sulforhodamine B assay; conditions: read-out: Activity
[5] = Antiproliferative activity against human HL-60(TB) cells assessed as cell growth at 10^-5 M after 48 hrs by sulforhodamine B assay; conditions: HL-60, 48 h, read-out: Activity
A549 = experiment: Antiproliferative activity against human A549/ATCC cells assessed as cell growth at 10^-5 M after 48 hrs by sulforhodamine B assay; conditions: A549, 48 h, read-out: Activity
[6] = Antiproliferative activity against human HOP92 cells assessed as cell growth at 10^-5 M after 48 hrs by sulforhodamine B assay; conditions: HOP-92, 48 h, read-out: Activity
NCI-H226 = experiment: Antiproliferative activity against human NCI-H226 cells assessed as cell growth at 10^-5 M after 48 hrs by sulforhodamine B assay; conditions: NCI-H226, 48 h, read-out: Activity
NCI-H23 = experiment: Antiproliferative activity against human NCI-H23 cells assessed as cell growth at 10^-5 M after 48 hrs by sulforhodamine B assay; conditions: NCI-H23, 48 h, read-out: Activity
NCI-H322M = experiment: Antiproliferative activity against human NCI-H322M cells assessed as cell growth at 10^-5 M after 48 hrs by sulforhodamine B assay; conditions: read-out: Activity
[7] = Antiproliferative activity against human COLO205 cells assessed as cell growth at 10^-5 M after 48 hrs by sulforhodamine B assay; conditions: COLO 205, 48 h, read-out: Activity
[8] = Antiproliferative activity against human HCC2998 cells assessed as cell growth at 10^-5 M after 48 hrs by sulforhodamine B assay; conditions: HCC 2998, 48 h, read-out: Activity
[9] = Antiproliferative activity against human HCT15 cells assessed as cell growth at 10^-5 M after 48 hrs by sulforhodamine B assay; conditions: HCT-15, 48 h, read-out: Activity
KM12 = experiment: Antiproliferative activity against human KM12 cells assessed as cell growth at 10^-5 M after 48 hrs by sulforhodamine B assay; conditions: KM12, 48 h, read-out: Activity
[10] = Antiproliferative activity against human SW620 cells assessed as cell growth at 10^-5 M after 48 hrs by sulforhodamine B assay; conditions: SW-620, 48 h, read-out: Activity
[11] = Antiproliferative activity against human SF268 cells assessed as cell growth at 10^-5 M after 48 hrs by sulforhodamine B assay; conditions: SF-268, 48 h, read-out: Activity
[12] = Antiproliferative activity against human SNB19 cells assessed as cell growth at 10^-5 M after 48 hrs by sulforhodamine B assay; conditions: SNB-19, 48 h, read-out: Activity
MDA-MB-435 = experiment: Antiproliferative activity against human MDA-MB-435 cells assessed as cell growth at 10^-5 M after 48 hrs by sulforhodamine B assay; conditions: MDA-MB-435, 48 h, read-out: Activity
SK-MEL-2 = experiment: Antiproliferative activity against human SK-MEL-2 cells assessed as cell growth at 10^-5 M after 48 hrs by sulforhodamine B assay; conditions: SK-MEL-2, 48 h, read-out: Activity
[13] = Antiproliferative activity against human UACC257 cells assessed as cell growth at 10^-5 M after 48 hrs by sulforhodamine B assay; conditions: UACC-257, 48 h, read-out: Activity
[14] = Antiproliferative activity against human IGROV1 cells assessed as cell growth at 10^-5 M after 48 hrs by sulforhodamine B assay; conditions: IGROV-1, 48 h, read-out: Activity
[15] = Antiproliferative activity against human OVCAR3 cells assessed as cell growth at 10^-5 M after 48 hrs by sulforhodamine B assay; conditions: OVCAR-3, 48 h, read-out: Activity
[16] = Antiproliferative activity against human OVCAR4 cells assessed as cell growth at 10^-5 M after 48 hrs by sulforhodamine B assay; conditions: OVCAR-4, 48 h, read-out: Activity
[17] = Antiproliferative activity against human OVCAR5 cells assessed as cell growth at 10^-5 M after 48 hrs by sulforhodamine B assay; conditions: OVCAR-5, 48 h, read-out: Activity
[18] = Antiproliferative activity against human OVCAR8 cells assessed as cell growth at 10^-5 M after 48 hrs by sulforhodamine B assay; conditions: OVCAR-8, 48 h, read-out: Activity
[19] = Antiproliferative activity against human SKOV3 cells assessed as cell growth at 10^-5 M after 48 hrs by sulforhodamine B assay; conditions: SK-OV-3, 48 h, read-out: Activity
786-0 = experiment: Antiproliferative activity against human 786-0 cells assessed as cell growth at 10^-5 M after 48 hrs by sulforhodamine B assay; conditions: 786-0, 48 h, read-out: Activity
A498 = experiment: Antiproliferative activity against human A498 cells assessed as cell growth at 10^-5 M after 48 hrs by sulforhodamine B assay; conditions: A498, 48 h, read-out: Activity
[20] = Antiproliferative activity against human Caki1 cells assessed as cell growth at 10^-5 M after 48 hrs by sulforhodamine B assay; conditions: CAKI-1, 48 h, read-out: Activity
SN12C = experiment: Antiproliferative activity against human SN12C cells assessed as cell growth at 10^-5 M after 48 hrs by sulforhodamine B assay; conditions: read-out: Activity
[21] = Antiproliferative activity against human PC3 cells assessed as cell growth at 10^-5 M after 48 hrs by sulforhodamine B assay; conditions: PC-3, 48 h, read-out: Activity
[22] = Antiproliferative activity against human DU145 cells assessed as cell growth at 10^-5 M after 48 hrs by sulforhodamine B assay; conditions: DU-145, 48 h, read-out: Activity
MDA-MB-231 = experiment: Antiproliferative activity against human MDA-MB-231 cells assessed as cell growth at 10^-5 M after 48 hrs by sulforhodamine B assay; conditions: MDA-MB-231, 48 h, read-out: Activity
[23] = Antiproliferative activity against human Hs 578T cells assessed as cell growth at 10^-5 M after 48 hrs by sulforhodamine B assay; conditions: read-out: Activity
[24] = Antiproliferative activity against human BT549 cells assessed as cell growth at 10^-5 M after 48 hrs by sulforhodamine B assay; conditions: BT-549, 48 h, read-out: Activity
MDA-MB-468 = experiment: Antiproliferative activity against human MDA-MB-468 cells assessed as cell growth at 10^-5 M after 48 hrs by sulforhodamine B assay; conditions: MDA-MB-468, 48 h, read-out: Activity

| SMILES | inhibition of growth at 100 µM [1] | inhibition of growth at 10 µM [2] | inhibition of growth at 100 µM [3] | inhibition of growth at 10 µM [4] | growth at 10 µM (CCRF-CEM) | growth at 10 µM [5] | growth at 10 µM (A549) | growth at 10 µM [6] | growth at 10 µM (NCI-H226) | growth at 10 µM (NCI-H23) | growth at 10 µM (NCI-H322M) | growth at 10 µM [7] | growth at 10 µM [8] | growth at 10 µM [9] | growth at 10 µM (KM12) | growth at 10 µM [10] | growth at 10 µM [11] | growth at 10 µM [12] | growth at 10 µM (MDA-MB-435) | growth at 10 µM (SK-MEL-2) | also measured |
| --- | --- | --- | --- | --- | --- | --- | --- | --- | --- | --- | --- | --- | --- | --- | --- | --- | --- | --- | --- | --- | --- |
| CNC(=O)c1cc(Oc2ccc3nc(NC(=O)Nc4cc(C(F)(F)F)cc(C(F)(F)F)c4)sc3c2)ccn1 | 98.4% | 87.5% | 96.3% | 88.1% | -16% | -46% | -91% | -69% | -57% | -59% | -57% | -79% | -64% | -70% | -58% | -74% | -77% | -34% | -69% | -53% | growth at 10 µM [13]: -82%; growth at 10 µM [14]: -62%; growth at 10 µM [15]: -93%; growth at 10 µM [16]: -64%; growth at 10 µM [17]: -64%; growth at 10 µM [18]: -93%; growth at 10 µM [19]: -71%; growth at 10 µM (786-0): -89%; growth at 10 µM (A498): -79%; growth at 10 µM [20]: -77%; growth at 10 µM (SN12C): -58%; growth at 10 µM [21]: -65%; growth at 10 µM [22]: -69%; growth at 10 µM (MDA-MB-231): -64%; growth at 10 µM [23]: -34%; growth at 10 µM [24]: -71%; growth at 10 µM (MDA-MB-468): -70% |
| CNC(=O)c1cc(Oc2ccc3nc(NC(=O)Nc4ccc(F)cc4F)sc3c2)ccn1 | 86.3% | 56.9% | 79.5% | 61.6% | 89.7% | 98.3% | 44.8% | -13.7% | 52.8% | 47% | 62.2% | 87.1% | 88.1% | 84% | 72.6% | 99.9% | 76.1% | 71.1% | 62.5% | 74.7% | growth at 10 µM [13]: 74.3%; growth at 10 µM [14]: 84.2%; growth at 10 µM [15]: 74.7%; growth at 10 µM [16]: 34.2%; growth at 10 µM [17]: 95.2%; growth at 10 µM [18]: 45.1%; growth at 10 µM [19]: 76.3%; growth at 10 µM (786-0): 64%; growth at 10 µM (A498): 10.9%; growth at 10 µM [20]: 88.4%; growth at 10 µM (SN12C): 69.2%; growth at 10 µM [21]: 65.9%; growth at 10 µM [22]: 65.7%; growth at 10 µM (MDA-MB-231): 47.6%; growth at 10 µM [23]: 44.5%; growth at 10 µM [24]: 100%; growth at 10 µM (MDA-MB-468): 51.2% |
